Assay results: patent US20040086901A1, “Database for analyzing gene function and method of analyzing gene function by dspa” (priority 2000, published 2004)
Non-standard residues stand in square brackets, D forms with d. Residues, ends and D or L forms follow the SMILES beside them. Nle = CCCC[C@H](N)C(=O)O

Tests used:
Format in all cases: cell-based, mouse
[1] = system: NIH3T3 cells overexpressing Ha-ras; test: MTT cell viability, drug sensitivity of Ha-ras overexpressing cells vs parental line; conditions: Ha-ras high-expressing cells / parental cell line, 3 to 4 days
Description: (§1) With regard to the function-known genes, the genes shown in the left column of Table 2 were used. With regard to the drugs, those shown in Table 1 were dissolved in DMSO to an extent of 100-fold of the maximum concentration for the search of the drugs and used. With regard to the cells, incubated NIH3T3 or ras-NIH3T3 cells were used.
(§2) Full-length cDNA of each function-known genes was incorporated into an expression vector (pRc-CMV, etc.) and transfected into NIH3T3 cells by a common method. Transformed cells were isolated using the resistance to G-418 as an index and the expression of the transfected gene in each cell was investigated by Western blotting method to select a highly expressing line.
(§3) Cell viabilities were measured according to the following procedures.
(§4) 1) From the 2nd to the 11th rows of a 96-well plate were filled with DMEM (50 μl). The 12th row was filled with 100 μl of DMEM.
(§5) 2) The 1st row was filled with 98 μl of DMEM.
(§6) 3) Drugs (2 μl each) were added into the 1st row.
(§7) 4) Continuous double-dilution was conducted from the 1st to the 9th rows. Fifty μl were taken out from the 9th row and discarded. The plate was preserved in a CO2 incubator.
(§8) 5) Cells (each high-expressing cells and the parental cell line) were detached from the medium using a trypsin solution, suspended in 10% CS-DMEM and transferred to a test tube and cell numbers (cell/ml) were counted.
(§9) 6) The cells were diluted to a concentration of 1×10^5 cells/ml, and 50 μl of the cell suspension were added to the 1st to the 11th rows of the plate followed by gently stirring.
(§10) 7) The plate was transferred to the CO2 incubator and incubated for 3 to 4 days.
(§11) 8) MTT (5 mg/ml in PBS) (10 μl) was added to the 1st to the 12th rows of the plate and incubated in the CO2 incubator at 37° C. for 4 hours.
(§12) 9) A reaction stop solution (0.04N HCl in isopropanol) (150 μl) was added followed by mixing well and being allowed to stand at room temperature for about 2 hours.
(§13) 10) Coloration of formazan which was a metabolite of the MTT dye was measured using a microplate reader. The measurement wavelength was 574 nm and the reference wavelength was 655 nm. The 10th and the 11th rows of the plate were 100% controls and the 12th row was a 0% control.
(§14) As an index for the sensitivity of highly gene-expressing cells and the parental cell line to various drugs, each of the IC40 values thereof was specified and ratios of the IC40 values were calculated. […] After that, logarithmic values of ratios of IC40 values were calculated from each gene.

[2] = system: NIH3T3 cells overexpressing erbB2; test: MTT cell viability, erbB2 overexpressing cells vs parental line; conditions: erbB2 high-expressing cells / parental cell line, 3 to 4 days
Description: as §1, §2, §3, §4, §5, §6, §7, §8, §9, §10, §11, §12, §13
(§15) As an index for the sensitivity of highly gene-expressing cells and the parental cell line to various drugs, each of the IC40 values thereof was specified and ratios of the IC40 values were calculated. FIG. 2 and FIG. 3 are the examples where ratios of IC40 values were calculated from a curve showing the dependency on the concentration of the chemical versus the viability. After that, logarithmic values of ratios of IC40 values were calculated from each gene.

[3] = system: NIH3T3 cells overexpressing Cip-1; test: MTT cell viability, Cip-1 overexpressing cells vs parental line; conditions: Cip-1 high-expressing cells / parental cell line, 3 to 4 days
Description: as §1, §2, §3, §4, §5, §6, §7, §8, §9, §10, §11, §12, §13, §14

[4] = system: NIH3T3 cells overexpressing p16/INK4A; test: MTT cell viability, p16/INK4A overexpressing cells vs parental line; conditions: p16/INK4A high-expressing cells / parental cell line, 3 to 4 days
Description: as §1, §2, §3, §4, §5, §6, §7, §8, §9, §10, §11, §12, §13, §15

[5] = system: NIH3T3 cells overexpressing Bax; test: MTT cell viability, Bax overexpressing cells vs parental line; conditions: 3 to 4 days
Description: as §1, §2, §3, §4, §5, §6, §7, §8, §9, §10, §11, §12, §13, §14

[6] = system: NIH3T3 cells overexpressing CP-antisense; test: MTT cell viability, CP-antisense cells vs parental line; conditions: 3 to 4 days
Description: as §1, §2, §3, §4, §5, §6, §7, §8, §9, §10, §11, §12, §13, §15

[7] = system: NIH3T3 cells overexpressing DAN; test: MTT cell viability, DAN overexpressing cells vs parental line; conditions: DAN high-expressing cells / parental cell line, 3 to 4 days
Description: as §1, §2, §3, §4, §5, §6, §7, §8, §9, §10, §11, §12, §13, §15

[8] = system: NIH3T3 cells overexpressing caspase-3; test: MTT cell viability, caspase-3 overexpressing cells vs parental line; conditions: caspase-3 high-expressing cells / parental cell line, 3 to 4 days
Description: as §1, §2, §3, §4, §5, §6, §7, §8, §9, §10, §11, §12, §13, §14

[9] = system: NIH3T3 cells overexpressing PDGF-R-Del; test: MTT cell viability, PDGF-R-Del overexpressing cells vs parental line; conditions: PDGF-R-Del high-expressing cells / parental cell line, 3 to 4 days
Description: as §1, §2, §3, §4, §5, §6, §7, §8, §9, §10, §11, §12, §13, §15

[10] = system: NIH3T3 cells overexpressing Gluco-corticoid-R; test: MTT cell viability, Gluco-corticoid-R overexpressing cells vs parental line; conditions: Gluco-corticoid-R high-expressing cells / parental cell line, 3 to 4 days
Description: as §1, §2, §3, §4, §5, §6, §7, §8, §9, §10, §11, §12, §13, §14

[11] = system: NIH3T3 cells overexpressing PKCepsilon-KN; test: MTT cell viability, PKCepsilon-KN overexpressing cells vs parental line; conditions: 3 to 4 days
Description: as §1, §2, §3, §4, §5, §6, §7, §8, §9, §10, §11, §12, §13, §14

[12] = system: NIH3T3 cells, TPA (PKC downreg); test: MTT cell viability, TPA (PKC downreg) cells vs parental line; conditions: 3 to 4 days
Description: as §1, §2, §3, §4, §5, §6, §7, §8, §9, §10, §11, §12, §13, §15

[13] = system: NIH3T3 cells overexpressing p38-DN; test: MTT cell viability, p38-DN overexpressing cells vs parental line; conditions: p38-DN high-expressing cells / parental cell line, 3 to 4 days
Description: as §1, §2, §3, §4, §5, §6, §7, §8, §9, §10, §11, §12, §13, §14

[14] = system: NIH3T3 cells overexpressing HSP4O; test: MTT cell viability, HSP4O overexpressing cells vs parental line; conditions: HSP4O high-expressing cells / parental cell line, 3 to 4 days
Description: as §1, §2, §3, §4, §5, §6, §7, §8, §9, §10, §11, §12, §13, §15

[15] = system: NIH3T3 cells overexpressing HSP9O; test: MTT cell viability, HSP9O overexpressing cells vs parental line; conditions: HSP9O high-expressing cells / parental cell line, 3 to 4 days
Description: as §1, §2, §3, §4, §5, §6, §7, §8, §9, §10, §11, §12, §13, §15

[16] = system: NIH3T3 cells overexpressing HNF3b; test: MTT cell viability, HNF3b overexpressing cells vs parental line; conditions: HNF3b high-expressing cells / parental cell line, 3 to 4 days
Description: as §1, §2, §3, §4, §5, §6, §7, §8, §9, §10, §11, §12, §13, §14

[17] = system: NIH3T3 cells overexpressing HNF4; test: MTT cell viability, HNF4 overexpressing cells vs parental line; conditions: HNF4 high-expressing cells / parental cell line, 3 to 4 days
Description: as §1, §2, §3, §4, §5, §6, §7, §8, §9, §10, §11, §12, §13, §14

[18] = system: NIH3T3 cells overexpressing coup; test: MTT cell viability, coup overexpressing cells vs parental line; conditions: coup high-expressing cells / parental cell line, 3 to 4 days
Description: as §1, §2, §3, §4, §5, §6, §7, §8, §9, §10, §11, §12, §13, §15

[19] = system: NIH3T3 cells overexpressing p33/ING1; test: MTT cell viability, p33/ING1 overexpressing cells vs parental line; conditions: p33/ING1 high-expressing cells / parental cell line, 3 to 4 days
Description: as §1, §2, §3, §4, §5, §6, §7, §8, §9, §10, §11, §12, §13, §15

[20] = Bax (first of two Bax lines) high-expressing cells / parental cell line
[21] = Bax (second of two Bax lines) high-expressing cells / parental cell line
[22] = PKCepsilon-KN (first of two lines) high-expressing cells / parental cell line
[23] = PKCepsilon-KN (second of two lines) high-expressing cells / parental cell line

| SMILES | logarithmic value of ratio of IC40 values [1] | logarithmic value of ratio of IC40 values [2] | logarithmic value of ratio of IC40 values [3] | logarithmic value of ratio of IC40 values [4] | logarithmic value of ratio of IC40 values [5, 20] | logarithmic value of ratio of IC40 values [5, 21] | logarithmic value of ratio of IC40 values [6] | logarithmic value of ratio of IC40 values [7] | logarithmic value of ratio of IC40 values [8] | logarithmic value of ratio of IC40 values [9] | logarithmic value of ratio of IC40 values [10] | logarithmic value of ratio of IC40 values [11, 22] | logarithmic value of ratio of IC40 values [11, 23] | logarithmic value of ratio of IC40 values [12] | logarithmic value of ratio of IC40 values [13] | logarithmic value of ratio of IC40 values [14] | logarithmic value of ratio of IC40 values [15] | logarithmic value of ratio of IC40 values [16] | logarithmic value of ratio of IC40 values [17] | logarithmic value of ratio of IC40 values [18] | further results |
| --- | --- | --- | --- | --- | --- | --- | --- | --- | --- | --- | --- | --- | --- | --- | --- | --- | --- | --- | --- | --- | --- |
| CCCC[C@@H](C=O)NC(=O)[C@H](CC(C)C)NC(=O)[C@H](CC(C)C)NC(C)=O [ALLN] (Ac-Leu-Leu-[Nle]-aldehyde) | 0.15 | −0.05 | 0.18 | 0.09 | −0.10 | 0.11 | 0.00 | 0.00 | −0.09 | 0.10 | 0.12 | 0.07 | 0.19 | −0.09 | 0.04 | 0.18 | 0.16 | 0.28 | −0.15 | 0.06 | logarithmic value of ratio of IC40 values [19]: 0.08 |
| CC(=O)OCOC(=O)CN(CC(=O)OCOC(C)=O)c1ccccc1OCCOc1ccccc1N(CC(=O)OCOC(C)=O)CC(=O)OCOC(C)=O [BAPTA-AM] | −0.20 | −0.40 | 0.00 | 0.20 | 0.15 | 0.00 | 0.06 | 0.70 | 0.60 | 0.31 | 0.10 | 0.00 | 0.00 | −0.03 | 0.00 | 0.05 | 0.60 | −0.07 | −0.10 | 0.09 | logarithmic value of ratio of IC40 values [19]: 0.00 |
| CO[C@H]1[C@@H](OC)C[C@H](C)[C@@H](OC)C2=CC(=O)C=C(NC(=O)/C(C)=C/C=C\[C@H](OC)[C@@H](OC(N)=O)/C(C)=C/[C@@H]1C)C2=O [HMA, herbimycin A] | −0.35 | −0.55 | −0.30 | 0.41 | −0.05 | 0.15 | −0.10 | −0.05 | 0.08 | 0.00 | −0.11 | −0.11 | 0.09 | −0.07 | −0.05 | 0.00 | 0.40 | −0.18 | −0.08 | 0.42 | logarithmic value of ratio of IC40 values [19]: 0.38 |
| CCCC[C@@H](C)/C=C(C)/C=C(\C)C(=O)NC1=C[C@@](O)(/C=C/C=C/C=C/C(=O)NC2=C(O)CCC2=O)[C@@H]2O[C@@H]2C1=O [Manumycin, manumycin] | −0.30 | −0.05 | 0.12 | 0.08 | −0.07 | 0.06 | 0.00 | 0.00 | 0.04 | 0.09 | 0.09 | −0.11 | 0.16 | 0.03 | 0.00 | −0.06 | −0.13 | −0.06 | 0.00 | 0.09 | logarithmic value of ratio of IC40 values [19]: 0.18 |
| O=[As]O [NaAsO2, sodium arsenite] | 0.04 | −0.15 | 0.30 | 0.16 | −0.10 | 0.34 | 0.02 | −0.15 | 0.11 | 0.00 | 0.16 | −0.07 | 0.35 | −0.20 | 0.00 | −0.02 | 0.10 | 0.00 | 0.00 | −0.19 | logarithmic value of ratio of IC40 values [19]: −0.07 |
